Experimental data reported in patent US20240174622A1, “COMPOUND AND RADIOACTIVE LABELING COMPOUND” (NIHON MEDI-PHYSICS CO., LTD., priority 2021, published 2024).

Experiments:
[1] = tested on: PC-3 tumor-transplanted mouse; experiment: Internal radioactivity distribution using PC-3 tumor-transplanted mouse; type: in vivo; conditions: for Blood / Brain / Heart / Intestine / Kidney / Liver / Lung / Muscle / PC-3 Tumor / Pancreas / Spleen / Stomach (% ID): PC-3 tumor-transplanted mice; for accumulation at the PC-3 tumor compared with the LNCaP tumor at the same time point (in words): mouse, in vivo
Method: (§1) The animal test was performed in compliance with the guidelines of Kyoto University Animal Experiment Committee. Male CB17/IcrJcl-Prkdc^scid mice were purchased from CLEA Japan, Inc. The animals were kept under 12 h/12 h, day/night cycle conditions and fed ad libitum with food and water. LNCaP cells (1.0×10^7 cells/mouse) or PC-3 cells (1.0×10^7 cells/mouse) were suspended in a mixture of PBS and Matrigel manufactured by Corning Life Sciences (1:1, 150 μL) and the suspension was subcutaneously transplanted to the right shoulder of mice under isoflurane anesthesia. Thereafter, the mice were kept for 40 to 60 days.
LNCaP or PC-3 tumor-implanted mice were administered saline solutions (185 kBq, 100 μL) of [^111In]In-PSMA-DA1 or [^111In]In-PSMA-DB from the tail vein (n=3 each). Mice were euthanized 1, 4, 24, 48, 96, and 192 hours after administration. Thereafter, blood and each organ were recovered, and the mass and radioactivity of the organs were measured.
The percentage (% ID) of the radioactivity amount to the administered radioactivity amount (injected dose) is shown as the value (% ID/g) divided by the blood mass or the organ mass (g).
as §1, with “LNCaP cells (4.3×10^6 cells/mouse) or” for “LNCaP cells (1.0×10^7 cells/mouse) or”, “PC-3 cells (3.3×10^6 cells/mouse) were” for “PC-3 cells (1.0×10^7 cells/mouse) were”, “shoulder of CB17/IcrJcl-Prkdc^scid mice under” for “shoulder of mice under”
Mice were euthanized 1, 4, 24, 48, 96, and 192 hours after administration. Thereafter, blood and each organ were recovered, and the mass and radioactivity of the organs were measured.
The results are shown in Table 13 (Mean value±standard deviation, n=3).

[2] = molecular target: human serum albumin (HSA) (Homo sapiens, UniProt P02768); experiment: Evaluation of binding to albumin (HSA solution, PBS control)
Chain of human serum albumin (HSA) (P02768 25-609): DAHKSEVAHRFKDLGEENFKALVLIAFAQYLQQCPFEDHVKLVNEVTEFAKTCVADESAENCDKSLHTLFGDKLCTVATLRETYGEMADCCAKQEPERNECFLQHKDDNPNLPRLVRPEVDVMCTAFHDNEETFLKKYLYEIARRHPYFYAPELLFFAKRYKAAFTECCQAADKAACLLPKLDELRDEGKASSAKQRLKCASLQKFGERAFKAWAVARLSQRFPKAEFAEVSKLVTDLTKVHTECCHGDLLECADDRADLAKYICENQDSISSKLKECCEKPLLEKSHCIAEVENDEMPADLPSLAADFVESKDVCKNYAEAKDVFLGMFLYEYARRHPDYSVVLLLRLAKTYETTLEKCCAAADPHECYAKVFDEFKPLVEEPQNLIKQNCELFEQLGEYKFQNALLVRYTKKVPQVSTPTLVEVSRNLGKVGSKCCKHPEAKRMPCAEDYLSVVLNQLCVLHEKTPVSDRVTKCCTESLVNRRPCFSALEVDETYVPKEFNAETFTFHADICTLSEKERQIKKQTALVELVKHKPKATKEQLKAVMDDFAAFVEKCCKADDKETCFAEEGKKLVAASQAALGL
Method: Thereafter, the reaction liquids were added to a spin column (Sephadex G-100; manufactured by Cytiva), and centrifuged at 1500×g at 4° C. for 2 minutes. After separation, the radioactivity for each of the column and the eluate was measured with a gamma counter.
When a compound to be evaluated binds to albumin to form a composite, the compound passes through the column because of the increased molecular size.
As in Examples described above, PBS and human albumin were used to evaluate binding to albumin.
Thereafter, the reaction liquid was added to a spin column (Sephadex G-50; manufactured by Cytiva), and centrifuged at 1500×g at 4° C. for 2 minutes. After separation, the radioactivity of the column and the eluate was measured with a gamma counter.

[3] = tested on: PC-3 tumor; experiment: SPECT/CT, PC-3 tumor in mouse transplanted with LNCaP and PC-3; type: in vivo; conditions: 24 (and 48) hours after administration
Method: LNCaP cells (1.0×10^7 cells/mouse) were suspended in a mixture of PBS and Matrigel (1:1, 150 μL) and subcutaneously transplanted to the right shoulder of a male CB17/IcrJcl-Prkdc^scid mouse kept in the same manner as in Example 1-1 under isoflurane anesthesia. In addition, a suspension of PC-3 cells (1.0×10^7 cells/mouse) in a mixture of PBS and Matrigel (1:1, 150 μL) was subcutaneously transplanted into the left shoulder of the same mouse under isoflurane anesthesia. Thereafter, the mouse was kept for 40 to 60 days. In this way, a tumor-transplanted mouse in which LNCaP cells and PC-3 cells were simultaneously transplanted into one mouse was obtained. The tumor-transplanted mouse was then administered saline solution (2.7 MBq, 100 μL) of [^111In]In-PtDA from the tail vein. SPECT/CT was performed 24 and 48 hours after administration with FX3300 pre-clinical imaging system, which is manufactured by Gamma Medica-Ideas. Imaging was performed using a pinhole collimator with a diameter of 1.0 mm at a rotation radius of 35 mm, a projection time of 70 seconds, and the number of projections of 32 times under isoflurane anesthesia. After SPECT, CT (Tube voltage: 60 kV, Tube current: 350 μA) was performed. Image reconstruction was performed on the projection data of SPECT through three-dimensional ordered subset expectation maximization method (8 subsets, 5 iterations). […]

[4] = Evaluation of distribution coefficient (1-octanol/PBS); type: physicochemical; conditions: 1-octanol / PBS pH 7.4
Method: [^111In]In-PtDA (111 kBq) was added to a mixture of PBS (pH 7.4, 3 mL) and 1-octanol (3 mL), and the mixture was dispersed by vortexing for 2 minutes and then centrifuged at 4000×g for 5 minutes. 1 mL was recovered respectively from the 1-octanol layer and the PBS layer, and the radioactivity of each layer was measured with a gamma counter (n=3).
As the calculation formula, “(Distribution coefficient)=Log10[(radioactivity of 1-octanol layer [kBq])/(radioactivity of PBS layer [kBq])]” was used.

[5] = left to stand in HSA solution (45 mg/mL)

SMILES	accumulation at the PC-3 tumor compared with the LNCaP tumor at the same time point (in words) [1]	radioactivity in the eluate (in words) [2, 5]	radioactivity in the eluate (in words) ([2]; left to stand in PBS)	radioactivity signal in the PC-3 tumor in SPECT/CT [3]	Blood ([1]; 24 h after administration)	Brain ([1]; 24 h after administration)	Heart ([1]; 24 h after administration)	Intestine ([1]; 24 h after administration)	Kidney ([1]; 24 h after administration)	Liver ([1]; 24 h after administration)	Lung ([1]; 24 h after administration)	Muscle ([1]; 24 h after administration)	PC-3 Tumor ([1]; 24 h after administration)	Pancreas ([1]; 24 h after administration)	Spleen ([1]; 24 h after administration)	Stomach (% ID) ([1]; 24 h after administration)	further results
O=C([O-])CN1CCN(C(CCC(=O)NCCC(=O)N2Cc3ccccc3-c3c(nnn3CCOCCOCCOCCOCCC(=O)NCCCC[C@H](NC(=O)N[C@@H](CCC(=O)O)C(=O)O)C(=O)O)-c3ccccc32)C(=O)[O-])CCN(CC(=O)[O-])CCN(C(CCC(=O)N[C@@H](CCCCNC(=O)CCCc2ccc(I)cc2)C(=O)O)C(=O)[O-])CC1.[111In+3] (stereo partly drawn) [[^111In]In-PtDA]				almost no radioactive signal													radioactivity in the eluate ([2]; PBS): 6.9%; radioactivity in the eluate ([2]; human albumin solution): 92.4%; Log P (distribution coefficient) [4]: −3.08±0.02
O=C(O)CC[C@H](NC(=O)N[C@@H](CCCCNC(=O)[C@H](Cc1ccc2ccccc2c1)NC(=O)[C@H]1CC[C@H](CNC(=O)CCC(C(=O)O)N2CCN(CC(=O)O)CCN(C(CCC(=O)N[C@@H](CCCCNC(=O)CCCc3ccc(I)cc3)C(=O)O)C(=O)O)CCN(CC(=O)O)CC2)CC1)C(=O)O)C(=O)O (stereo partly drawn) [[^111In]In-PSMA-NAT-DA1, metal not drawn]	significantly lower				5.73 ± 1.10 % ID/g	0.22 ± 0.03 % ID/g	2.67 ± 0.58 % ID/g	0.68 ± 0.07 % ID/g	27.9 ± 6.05 % ID/g	1.74 ± 0.37 % ID/g	7.41 ± 1.13 % ID/g	0.83 ± 0.26 % ID/g	3.21 ± 1.00 % ID/g	1.25 ± 0.04 % ID/g	6.94 ± 4.55 % ID/g	0.15 ± 0.03 % ID	
O=C([O-])CN(Cc1cccc(C(=O)[O-])n1)C[C@H](Cc1ccc(NC(=O)[C@H](CCCCNC(=O)CCC(=O)NCCCC[C@H](NC(=O)N[C@@H](CCC(=O)O)C(=O)O)C(=O)O)NC(=O)CCCc2ccc(I)cc2)cc1)N(CC(=O)[O-])Cc1cccc(C(=O)[O-])n1.[111In+3] [[^111In]In-Octapa-2]		significantly higher		hardly observed													

Second part, led by results:

accumulation at the PC-3 tumor compared with the LNCaP tumor at the same time point (in words) [1]	radioactivity in the eluate (in words) [2, 5]	radioactivity in the eluate (in words) ([2]; left to stand in PBS)	radioactivity signal in the PC-3 tumor in SPECT/CT [3]	SMILES	Blood ([1]; 24 h after administration)	Brain ([1]; 24 h after administration)	Heart ([1]; 24 h after administration)	Intestine ([1]; 24 h after administration)	Kidney ([1]; 24 h after administration)	Liver ([1]; 24 h after administration)	Lung ([1]; 24 h after administration)	Muscle ([1]; 24 h after administration)	PC-3 Tumor ([1]; 24 h after administration)	Pancreas ([1]; 24 h after administration)	Spleen ([1]; 24 h after administration)	Stomach (% ID) ([1]; 24 h after administration)	further results
less accumulated	significantly higher	no significant radioactivity		O=C([O-])CN1CCN(C(CCC(=O)NCCCC[C@H](NC(=O)N[C@@H](CCC(=O)O)C(=O)O)C(=O)O)C(=O)[O-])CCN(CC(=O)[O-])CCN(C(CCC(=O)N[C@@H](CCCCNC(=O)CCCc2ccc(I)cc2)C(=O)O)C(=O)[O-])CC1.[111In+3] (stereo partly drawn) [[^111In]In-PSMA-DA1]	5.73 ± 0.67 % ID/g	0.17 ± 0.04 % ID/g	1.90 ± 0.22 % ID/g	1.37 ± 0.22 % ID/g	9.56 ± 1.55 % ID/g	1.60 ± 0.12 % ID/g	4.74 ± 0.67 % ID/g	0.59 ± 0.02 % ID/g	2.69 ± 0.30 % ID/g	1.37 ± 0.04 % ID/g	2.52 ± 0.12 % ID/g	0.27 ± 0.08 % ID	
less accumulated		no significant radioactivity		O=C([O-])CN1CCN(C(CCC(=O)NCCCC[C@H](NC(=O)N[C@@H](CCC(=O)O)C(=O)O)C(=O)O)C(=O)[O-])CCN(CC(=O)[O-])CCN(C(CCC(=O)Nc2ccccc2)C(=O)[O-])CC1.[111In+3] (stereo partly drawn) [[^111In]In-PSMA-DB, reference compound]													Blood ([1]; 1 h after administration): 1.92 ± 0.27 % ID/g; Brain ([1]; 1 h after administration): 0.06 ± 0.00 % ID/g; Heart ([1]; 1 h after administration): 0.49 ± 0.05 % ID/g; Intestine ([1]; 1 h after administration): 0.48 ± 0.04 % ID/g; Kidney ([1]; 1 h after administration): 49.5 ± 12.6 % ID/g; Liver ([1]; 1 h after administration): 0.62 ± 0.03 % ID/g; Lung ([1]; 1 h after administration): 1.36 ± 0.23 % ID/g; Muscle ([1]; 1 h after administration): 0.21 ± 0.08 % ID/g; PC-3 Tumor ([1]; 1 h after administration): 0.61 ± 0.06 % ID/g; Pancreas ([1]; 1 h after administration): 0.44 ± 0.06 % ID/g; Spleen ([1]; 1 h after administration): 2.57 ± 0.39 % ID/g; Stomach (% ID) ([1]; 1 h after administration): 0.12 ± 0.04 % ID
